Test results: patent US12643871B2, “Aryl formamide compound containing chiral sulfur oxide or salt thereof, preparation method, herbicidal composition and use thereof” (Qingdao Kingagroot Chemical Compound Co., Ltd., priority 2019, dated 2026)

Columns and labels:
Assay type in all cases: in vivo
Alopecurus japonicas = assay: Comparison experiment (post-emergence) against racemate / S configuration; details: Table 6, post-seedling test conditions
Text: (§1) The above growth control rates are fresh weight control rates.
(§2) Experiment on weeding effect in post-emergence stage: monocotyledonous and dicotyledonous weed seeds (Descurainia sophia, Capsella bursa-pastoris, Galium aparine, Stellaria media, Lithospermum arvense, Rorippa indica, Alopecurus aequalis, Beckmannia syzigachne, Sclerochloa dura, Phleum paniculatum, Bromus japonicus, Aegilops tauschii, Phalaris arundinacea, Amaranthus retroflexus, Chenopodiaceae, Commelina communis, Sonchus arvensis, convolvulus arvensis, Cirsium setosum, Solanum nigrum, Acalypha australis, Digitaria sanguinalis, Echinochloa crusgalli, Setaria viridis, Setaria glauca, Leptochloa chinensis, Monochoria vaginalis, Sagittaria trifolia, Scirpus juncoides, Cyperus rotundus, Cyperus iria, Cyperus difformis, Fimbristylis, Portulaca oleracea, Xanthium sibiricum, Pharbitis nil) and major crop seeds (wheat, corn, rice, soybean, cotton, oilseed rape, millet, sorghum, potato, sesame, ricinus) were placed in plastic pots filled with soil, then covered with 0.5-2 cm of soil, allowed to grow in a good greenhouse environment. After 2 weeks of sowing, the test plants were treated in the 2 leaf stage. The tested compounds of the present invention were respectively dissolved in acetone, then added with Tween 80 and 1.5 liter/ha of emulsifiable concentrate of methyl oleate as synergist, diluted with a certain amount of water to obtain a solution with a certain concentration, and sprayed with a spray tower onto the plants. After the application, the plants were cultured for 15 days in the greenhouse, and then the experimental results of the weeding were counted. The doses of the used compounds were 500, 250, 125, 60, 30, 15 g/ha, and the averages were obtained by repeating for three times.
(§3) If there is no clear marker, the post-seedling test conditions are the same as above, and the experimental results are shown in Tables 4-7.

Digitaria sanguinalis [1] = assay: as above; details: Table 6, post-seedling test conditions
Text: as §1, §2, §3

Abutilon theophrasti = assay: as above; details: Abutilon theophrasti (3.5 leaf), 16DAA
Green Setaria viridis = assay: as above; details: for Results of comparison experiment (16DAA), weed control: Setaria viridis (4 leaf)
Leptochloa chinensis = assay: as above; details: Leptochloa chinensis (4.5 leaf), 16DAA
Corn-Zhengdan 958 = assay: Comparison experiment (post-emergence, Table 7), crop safety on corn; details: Corn-Zhengdan 958 (3.5 leaf)
Text: as §3

Amaranthus retroflexus = assay: Comparison experiment (post-emergence, Table 7); details: Amaranthus retroflexus (6 leaf)
Text: as §3

Capsella bursa-pastoris = assay: Comparison experiment (post-emergence, Table 7); details: Capsella bursa-pastoris (10-11 leaf)
Text: as §3

Descurainia sophia = assay: Comparison experiment (post-emergence, Table 7); details: Descurainia sophia (12 leaf)
Text: as §3

Echinochloa crusgali = assay: Comparison experiment (post-emergence, Table 7); details: Echinochloa crusgali (3 leaf)
Text: as §3

Galium aparine = assay: Comparison experiment (post-emergence, Table 7); details: Galium aparine (5 branches)
Text: as §3

Malachium aquaticum = assay: Comparison experiment (post-emergence, Table 7); details: Malachium aquaticum (2 branches)
Text: as §3

Sinapis arvensis = assay: Comparison experiment (post-emergence, Table 7); details: Sinapis arvensis (3.5 leaf)
Text: as §3

Veronica didyma = assay: Comparison experiment (post-emergence, Table 7); details: Veronica didyma (2 branches)
Text: as §3

Digitaria sanguinalis [2] = assay: Comparison experiment (post-emergence) against racemate / S configuration; details: Digitaria sanguinalis (3.5 leaf), 16DAA

CC[S+]([O-])c1c(C(F)(F)F)ccc(C(=O)Nc2nnc(C)o2)c1SC (centres unmarked) [Control Compound A′, reference compound]
Results of comparison experiment, Alopecurus japonicas (120 g/ha) (Alopecurus japonicas): 20% | Results of comparison experiment, Digitaria sanguinalis (30 g/ha) (Digitaria sanguinalis [1]): 50% | Results of comparison experiment (16DAA), weed control (Abutilon theophrasti; 3 g/ha): 10% | Results of comparison experiment (16DAA), weed control (Abutilon theophrasti; 6 g/ha): 20% | Results of comparison experiment (16DAA), weed control (Abutilon theophrasti; 12 g/ha): 30% | Results of comparison experiment (16DAA), weed control (Abutilon theophrasti; 24 g/ha): 40% | Results of comparison experiment (16DAA), weed control (Abutilon theophrasti; 48 g/ha): 50% | Results of comparison experiment, Green Setaria viridis (30 g/ha) (Green Setaria viridis; 30 g/ha, Table 6, post-seedling test conditions): 90% | Results of comparison experiment (16DAA), weed control (Green Setaria viridis; 3 g/ha): 0% | Results of comparison experiment (16DAA), weed control (Green Setaria viridis; 6 g/ha): 0% | Results of comparison experiment (16DAA), weed control (Green Setaria viridis; 12 g/ha): 10% | Results of comparison experiment (16DAA), weed control (Green Setaria viridis; 24 g/ha): 40% | Results of comparison experiment (16DAA), weed control (Green Setaria viridis; 48 g/ha): 50% | Results of comparison experiment (16DAA), weed control (Leptochloa chinensis; 3 g/ha): 0% | Results of comparison experiment (16DAA), weed control (Leptochloa chinensis; 6 g/ha): 0% | Results of comparison experiment (16DAA), weed control (Leptochloa chinensis; 12 g/ha): 0% | Results of comparison experiment (16DAA), weed control (Leptochloa chinensis; 24 g/ha): 10% | Results of comparison experiment (16DAA), weed control (Leptochloa chinensis; 48 g/ha): 20% | Results of comparison experiment (16DAA), crop damage (Corn-Zhengdan 958; 3 g/ha): 0% | Results of comparison experiment (16DAA), crop damage (Corn-Zhengdan 958; 6 g/ha): 0% | Results of comparison experiment (16DAA), crop damage (Corn-Zhengdan 958; 12 g/ha): 0% | Results of comparison experiment (16DAA), crop damage (Corn-Zhengdan 958; 24 g/ha): 0% | Results of comparison experiment (16DAA), crop damage (Corn-Zhengdan 958; 48 g/ha): 0% | Results of comparison experiment (16DAA), weed control (Amaranthus retroflexus; 3 g/ha): 10% | Results of comparison experiment (16DAA), weed control (Amaranthus retroflexus; 6 g/ha): 10% | Results of comparison experiment (16DAA), weed control (Amaranthus retroflexus; 12 g/ha): 40% | Results of comparison experiment (16DAA), weed control (Amaranthus retroflexus; 24 g/ha): 50% | Results of comparison experiment (16DAA), weed control (Amaranthus retroflexus; 48 g/ha): 50% | Results of comparison experiment (16DAA), weed control (Capsella bursa-pastoris; 3 g/ha): 0% | Results of comparison experiment (16DAA), weed control (Capsella bursa-pastoris; 6 g/ha): 10% | Results of comparison experiment (16DAA), weed control (Capsella bursa-pastoris; 12 g/ha): 10% | Results of comparison experiment (16DAA), weed control (Capsella bursa-pastoris; 24 g/ha): 20% | Results of comparison experiment (16DAA), weed control (Capsella bursa-pastoris; 48 g/ha): 30% | Results of comparison experiment (16DAA), weed control (Descurainia sophia; 3 g/ha): 0% | Results of comparison experiment (16DAA), weed control (Descurainia sophia; 6 g/ha): 10% | Results of comparison experiment (16DAA), weed control (Descurainia sophia; 12 g/ha): 20% | Results of comparison experiment (16DAA), weed control (Descurainia sophia; 24 g/ha): 30% | Results of comparison experiment (16DAA), weed control (Descurainia sophia; 48 g/ha): 40% | Results of comparison experiment (16DAA), weed control (Echinochloa crusgali; 3 g/ha): 10% | Results of comparison experiment (16DAA), weed control (Echinochloa crusgali; 6 g/ha): 20% | Results of comparison experiment (16DAA), weed control (Echinochloa crusgali; 12 g/ha): 30% | Results of comparison experiment (16DAA), weed control (Echinochloa crusgali; 24 g/ha): 40% | Results of comparison experiment (16DAA), weed control (Echinochloa crusgali; 48 g/ha): 50% | Results of comparison experiment (16DAA), weed control (Galium aparine; 3 g/ha): 0% | Results of comparison experiment (16DAA), weed control (Galium aparine; 6 g/ha): 0% | Results of comparison experiment (16DAA), weed control (Galium aparine; 12 g/ha): 0% | Results of comparison experiment (16DAA), weed control (Galium aparine; 24 g/ha): 0% | Results of comparison experiment (16DAA), weed control (Galium aparine; 48 g/ha): 10% | Results of comparison experiment (16DAA), weed control (Malachium aquaticum; 3 g/ha): 10% | Results of comparison experiment (16DAA), weed control (Malachium aquaticum; 6 g/ha): 10% | Results of comparison experiment (16DAA), weed control (Malachium aquaticum; 12 g/ha): 20% | Results of comparison experiment (16DAA), weed control (Malachium aquaticum; 24 g/ha): 30% | Results of comparison experiment (16DAA), weed control (Malachium aquaticum; 48 g/ha): 50% | Results of comparison experiment (16DAA), weed control (Sinapis arvensis; 3 g/ha): 0% | Results of comparison experiment (16DAA), weed control (Sinapis arvensis; 6 g/ha): 0% | Results of comparison experiment (16DAA), weed control (Sinapis arvensis; 12 g/ha): 20% | Results of comparison experiment (16DAA), weed control (Sinapis arvensis; 24 g/ha): 40% | Results of comparison experiment (16DAA), weed control (Sinapis arvensis; 48 g/ha): 50% | Results of comparison experiment (16DAA), weed control (Veronica didyma; 3 g/ha): 10% | Results of comparison experiment (16DAA), weed control (Veronica didyma; 6 g/ha): 10% | Results of comparison experiment (16DAA), weed control (Veronica didyma; 12 g/ha): 20% | Results of comparison experiment (16DAA), weed control (Veronica didyma; 24 g/ha): 20% | Results of comparison experiment (16DAA), weed control (Veronica didyma; 48 g/ha): 20% | Results of comparison experiment (16DAA), weed control (Digitaria sanguinalis [2]; 3 g/ha): 10% | Results of comparison experiment (16DAA), weed control (Digitaria sanguinalis [2]; 6 g/ha): 10% | Results of comparison experiment (16DAA), weed control (Digitaria sanguinalis [2]; 12 g/ha): 20% | Results of comparison experiment (16DAA), weed control (Digitaria sanguinalis [2]; 24 g/ha): 30% | Results of comparison experiment (16DAA), weed control (Digitaria sanguinalis [2]; 48 g/ha): 30%
